Data reported in patent publication US5686486A, “4-hydroxy-benzopyran-2-ones and 4-hydroxy-cycloalkyl[b]pyran-2-ones useful to treat retroviral infections” (priority 1995, dated 1997).
Like-named read-outs stand apart in the source and are kept apart here.

Biological target: HIV-1 protease (Human immunodeficiency virus type 1 group M subtype B, UniProt P04585)
Experiment: biochemical
Settings: for inhibition at 0.123 µM: read-out: HIV-1 Protease % Inhib, dose 0.123 uM; for inhibition at 1 µM: read-out: HIV-1 Protease % Inhib, dose 1.000 uM; for inhibition at 100 µM: read-out: HIV-1 Protease % Inhib, dose 100.000 uM
Protocol: The HIV protease screening assay is based on fluorescently labeled substrate which can be resolved from nonlabeled cleavage product using special beads coated with streptavidin. The substrate is biotinylated at the amino terminal arginine and fluorescently labeled with fluorescein isothiocynate (FITC) at the carboxyl terminal lysine. This assay has been employed to detect novel, nonpeptidic inhibitors of HIV-1 protease. Substrate (20 μl of 0.2 μM), sample (10 μl of desired concentration), and enzyme (10 μl of 0.1 μM) are added to a 96 well pandex plate. The assay is run in 0.1M sodium acetate buffer at pH 5.5 in the presence of 1.0M sodium chloride and 0.05% NP-40 with incubated in the dark for one hour at room temperature. Strepavidin coated polystyrene beads {40 μl of 0.1% (w/v)} are added and the plate is incubated in the dark for an additional half hour. The labeled cleavage product is separated from the unreacted substrate via filtration and is read on the Idexx screen machine. The data are analyzed by appropriate computer algorithms to ascertain percent inhibition values.

[1] = read-out: HIV-1 Protease % Inhib, dose 0.370 uM
[2] = read-out: HIV-1 Protease % Inhib, dose 1.100 uM
[3] = read-out: HIV-1 Protease % Inhib, dose 3.300 uM
[4] = read-out: HIV-1 Protease % Inhib, dose 10.000 uM
[5] = read-out: HIV-1 Protease % Inhib, dose 30.000 uM
[6] = dose 1.100 uM, read-out: HIV-1 Protease % Inhib
[7] = dose 3.300 uM, read-out: HIV-1 Protease % Inhib
[8] = dose 10.000 uM, read-out: HIV-1 Protease % Inhib
[9] = dose 30.000 uM, read-out: HIV-1 Protease % Inhib

| SMILES | inhibition at 0.123 µM | inhibition at 0.37 µM [1] | inhibition at 1.1 µM [2] | inhibition at 3.3 µM [3] | inhibition at 10 µM [4] | inhibition at 30 µM [5] | inhibition at 1 µM | inhibition at 100 µM | also measured |
| --- | --- | --- | --- | --- | --- | --- | --- | --- | --- |
| CS(=O)(=O)Nc1cccc(C(c2c(O)c3c(oc2=O)CCCCCC3)C2CC2)c1 (stereo not drawn) [Example 317, N-[3-[Cyclopropyl(5,6,7,8,9,10-hexahydro-4-hydroxy-2-oxo-2H-cycloocta[b]pyran-3-yl)methyl]phenyl]-methanesulfonamide] | 27.8% | 46.7% | 81.7% | 101% | 102% | 113% | – | – | – |
| O=c1oc2c(c(O)c1C(c1cccc(NS(=O)(=O)c3cc(Cl)cc(Cl)c3)c1)C1CC1)CCCCCC2 (stereo not drawn) [Example 288, 3,5-Dichloro-N-[3-[cyclopropyl(5,6,7,8,9,10-hexahydro-4-hydroxy-2-oxo-2H-cycloocta[b]pyran-3-yl)methyl]phenyl]-benzenesulfonamide] | 46.9% | 79.1% | 90.5% | 92.9% | 105% | 101% | – | – | – |
| CS(=O)(=O)N(Cc1ccccc1)c1cccc(C(c2c(O)c3c(oc2=O)CCCCCC3)C2CC2)c1 (stereo not drawn) [Example 245, N-[3-[Cyclopropyl(5,6,7,8,9, 10-hexahydro-4-hydroxy-2-oxo-2H-cycloocta[b]pyran-3-yl)methyl]phenyl]-N-(phenylmethyl)-methanesulfonamide] | – | – | – | – | – | – | – | – | inhibition at 1.1 µM [6]: 10.6%; inhibition at 3.3 µM [7]: 50.9%; inhibition at 10 µM [8]: 59.5%; inhibition at 30 µM [9]: 78.6% |
| Cc1ccccc1S(=O)(=O)Nc1cccc(C(c2c(O)c3c(oc2=O)CCCCCC3)C2CC2)c1 (stereo not drawn) [Example 330, N-[3-[Cyclopropyl(5,6,7,8,9,10-hexahydro-4-hydroxy-2-oxo-2H-cycloocta[b]pyran-3-yl)methyl]phenyl]-2-methyl-benzenesulfonamide] | 47.2% | 83.8% | 106% | 109% | 115% | 106% | – | – | – |
| CC(C)C(c1cccc(NS(=O)(=O)c2cccc3cccnc23)c1)c1c(O)c2c(oc1=O)CCCCCC2 (stereo not drawn) [Example 416, 8-Quinolinesulfonamide, N-[3-[1-(5,6,7,8,9,10-hexahydro4-hydroxy-2-oxo-2H-cycloocta[b]pyran-3-yl)-2-methylpropyl]phenyl]-] | 50.9% | 88% | 102% | 99.7% | 98.6% | 97.8% | – | – | – |
| O=c1oc2c(c(O)c1C(Cc1ccccc1)Cc1ccccc1)CCCCC2 [Example 482, 3-(1,3-Diphenyl-2-propyl)-5,6,7,8,9-pentahydro-4-hydroxy-2H-cyclohepta[b]pyran-2-one] | – | – | – | – | – | – | – | – | inhibition at 3.3 µM [7]: 20%; inhibition at 10 µM [8]: 63.2%; inhibition at 30 µM [9]: 92.6% |
| O=c1oc2c(c(O)c1C(c1cccc(NS(=O)(=O)c3cccc([N+](=O)[O-])c3)c1)C1CC1)CCCCCC2 (stereo not drawn) [Example 274, N-[3-[Cyclopropyl(5,6,7,8,9,10-hexahydro-4-hydroxy-2-oxo-2H-cycloocta[b]pyran-3-yl)methyl]phenyl]-3-nitro-benzenesulfonamide] | 70% | 88.2% | 95.8% | 98.8% | 103% | 105% | – | – | – |
| O=c1oc2c(c(O)c1C(c1cccc(NS(=O)(=O)c3ccc(C(F)(F)F)cc3)c1)C1CC1)CCCCCC2 (stereo not drawn) [Example 267, N-[3-[Cyclopropyl(5,6,7,8,9,10-hexahydro-4-hydroxy-2-oxo-2H-cycloocta[b]pyran-3-yl)methyl]phenyl]-4-(trifluoromethyl)-benzenesulfonamide] | 71.5% | 83.9% | 92% | 107% | 107% | 110% | – | – | – |
| C=CC(c1ccccc1)c1c(O)c2ccccc2oc1=O (stereo not drawn) [Example 74, 4-Hydroxy-3-(1-phenyl-2-propenyl)-coumarin] | – | – | – | – | < 10% | – | < 10% | 82.3% | – |
| CC(c1ccccc1)c1c(O)c2ccccc2oc1=O (stereo not drawn) [Example 6, 4-Hydroxy-3-(α-methylbenzyl)-coumarin] | – | – | – | – | 29.2% | – | – | 88.5% | inhibition at 20 µM (read-out: HIV-1 Protease % Inhib, dose 20.000 uM): 65.6%; inhibition at 200 µM (read-out: HIV-1 Protease % Inhib, dose 200.000 uM): 75.2% |
| COCCOCCC1CCCCc2c1oc(=O)c(C(c1ccccc1)C1CC1)c2O (stereo not drawn) [Example 180, 3-(Cyclopropylphenylmethyl)-6,7,8,9-tetrahydro-4-hydroxy-9-[2-(2-methoxyethoxy)ethyl]-cyclohepta[b]pyran-2(5H)-one] | – | – | – | – | – | – | – | – | inhibition at 1.1 µM [6]: 31.3%; inhibition at 3.3 µM [7]: 67.7%; inhibition at 10 µM [8]: 94.1%; inhibition at 30 µM [9]: 109% |
| CCC(c1ccc(F)cc1)c1c(O)c2ccccc2oc1=O (stereo not drawn) [Example 36, Coumarin, 3-(α-ethyl-p-fluorobenzyl)4-hydroxy-] | – | – | – | – | 16.9% | – | < 10% | 81.6% | – |
| CCCCNC(=O)c1cccc(C(C)c2c(O)c3ccccc3oc2=O)c1 (stereo not drawn) [Example 31, Coumarin, 3-[1-[3-[(butylamino)carbonyl]phenyl]ethyl]-4-hydroxy-] | – | – | – | – | < 10% | – | < 10% | 53.7% | – |
| O=c1oc2ccccc2c(O)c1C1(c2ccccc2)CC1 [Example 142, 4-Hydroxy-3-(1-phenyl-cyclopropyl)-chromen-2-one] | – | – | – | – | 15.7% | – | < 10% | 71.8% | – |
| COCCOCCOCCC1CCCCc2c1oc(=O)c(C(c1ccccc1)C1CC1)c2O (stereo not drawn) [Example 181, 3-(Cyclopropylphenylmethyl)-6,7,8,9-tetrahydro-4-hydroxy-9-[2-[2-(2-methoxyethoxy)ethoxy]ethyl]-cyclohepta[b]pyran-2(5H)-one] | – | – | – | – | – | – | – | – | inhibition at 1.1 µM [6]: 10.4%; inhibition at 3.3 µM [7]: 35.1%; inhibition at 10 µM [8]: 66.6%; inhibition at 30 µM [9]: 79.3% |
| CCC(c1cccc(NC(=O)CCCCc2ccccc2)c1)c1c(O)c2ccccc2oc1=O (stereo not drawn) [Example 54, Coumarin, 4-hydroxy-3-[1-[3-[(1-oxo-5-phenylpentyl)amino]phenyl]propyl]-] | – | – | – | – | – | – | < 10% | – | – |
| CCCC(c1cccc(NC(=O)OCc2ccccc2)c1)c1c(O)c2c(oc1=O)CCCCCC2 (stereo not drawn) [Example 375, [3-[1-(5,6,7,8,9,10-Hexahydro-4-hydroxy-2-oxo-2H-cycloocta[b]pyran-3-yl)butyl]phenyl]-carbamic acid, phenylmethyl ester] | – | – | – | – | – | – | – | – | inhibition at 0.37 µM (dose 0.370 uM, read-out: HIV-1 Protease % Inhib): 10.2%; inhibition at 1.1 µM [6]: 28.5%; inhibition at 3.3 µM [7]: 57.4%; inhibition at 10 µM [8]: 79%; inhibition at 30 µM [9]: 86% |
| CCC(c1cccc(NC(=O)C(NC(=O)OC(C)(C)C)C(C)C)c1)c1c(O)c2ccccc2oc1=O (stereo not drawn) [Example 42, Carbamic acid, [1-[[[3-[1-(4-hydroxy-2-oxo-2H-1-benzopyran-3-yl)propyl]phenyl]amino]carbonyl]-2-methylpropyl]-, 1,1-dimethylethyl ester] | – | – | – | – | 75.2% | – | 11.5% | 112% | IC50 (HIV-1 Protease IC50): 9.9 µM; HIV-1 Protease % Inhib (dose 100.000 uM): 102.8% |
| CCC(c1ccc(OC(C)=O)cc1)c1c(O)c2ccccc2oc1=O (stereo not drawn) [Example 72, 3-(1'-(4-Acetoxyphenyl)propyl)4-hydroxycoumarin] | – | – | – | – | 18.9% | – | < 10% | 92.3% | – |
| CCOC(=O)C(CC)c1c(O)c2ccccc2oc1=O (stereo not drawn) [Example 83, Butanoic acid, 2-(4-hydroxy-2-oxo-2H-1-benzopyran-3-yl)-, ethyl ester] | – | – | – | – | < 10% | – | < 10% | 50.1% | – |
